“And” between values parts separate entries of the source, which are not always exact repeats. Equal values may be shown once.
How the values were obtained:
[1] = Stability of the nanoparticulate suspensions over time (DLS); format: physicochemical; conditions: suspension stored at 23° C.
Protocol: The mean particle sizes were measured using the “Dynamic Light Scattering” (DLS) method on a Malvern-Panalytical Nano-Sizer ZS® at 25° C. with a detection angle of 173° and a wavelength of 633 nm. The reported sizes are determined by the mean of three measurements. The measurements were carried out in polystyrene cuvettes.
A solution of conjugate in EtOH (2 mg for 0.5 mL) is added dropwise to vigorously stirred MiliQ water (1 mL). The formation of nanoparticles is observed in that the solution becomes partially cloudy. The suspension that is thus obtained is transferred to a flask and the EtOH is evaporated on a rotary evaporator (200 mbar for 5 min, then 130 mbar for 1 min at 40° C. and at 50 revolutions per minute).
The residual suspension is transferred to a vial and stored at 23° C.
The samples are prepared as follows: 40 μL of the residual suspension is dissolved in 500 μL of MiliQ H2O.
The stability of the suspensions was measured over time and the results are summarized in Tables 2 and 3 and in the graph of FIG. 1 and in the graph of FIG. 2.

[2] = Influence of phytolization on the stability of retinol, HPLC monitoring; format: physicochemical; conditions: for A (mU), HPLC area, single measurement: 6 mg/L in H2O/iPrOH 1:1, 21° C., ambient light; for A (mU), HPLC area, Average: average of two measurements
Protocol: The HPLC analyzes were carried out with an “Ultimate 3000 system” chain, Dionex®, France on a C18 “Vintage series KR C18—5 μm-150×4.6 mm (Interchim®) column. The samples were detected by UV absorption at λ=325 nm.
Vitamin A (retinol) is known to be sensitive to oxygen and UV radiation. The phytolization process allows retinol to be stabilized.
The solutions of retinol and conjugate 9 in nanoparticulate form (6 mg/L in an H2O/iPrOH 1:1 mixture) were stored at 21° C. in ambient light and analyzed by HPLC over time (24 and 48 h).
The variation in the area of the compounds over time is shown over time (average of two measurements)—see Table 5 and the graph of FIG. 3.

Compound	d (nm) ([1]; Time 1 h)	d (nm) ([1]; Time 24 h)	d (nm) ([1]; Time 168 h)	d (nm) ([1]; Time 196 h)	Variation of areas ([2]; t0)	A (mU), HPLC area, single measurement ([2]; t0)	A (mU), HPLC area, Average ([2]; t0)	A (mU), HPLC area, single measurement ([2]; t24 h)	A (mU), HPLC area, Average ([2]; t24 h)	Variation of areas ([2]; t24 h vs t0)	A (mU), HPLC area, single measurement ([2]; t48 h)	A (mU), HPLC area, Average ([2]; t48 h)	Variation of areas ([2]; t48 h vs t0)	Breakdown rate of free retinol compared with conjugate 9 ([2]; free form vs nanoparticulate conjugate, 48 h)
C/C(=C\COC(=O)CCC(=O)OC1CCC(C(C)(C)C)CC1)CCC[C@H](C)CCC[C@H](C)CCCC(C)C (mixture of isomers) [Conjugate 7, Phytyl (4-tert-butyl cyclohexyl) succinate]	256.2 nm	269.7 nm	271.2 nm	269.6 nm	–	–	–	–	–	–	–	–	–	–
CC1=C(/C=C/C(C)=C/C=C/C(C)=C/COC(=O)CCC(=O)OC/C=C(\C)CCC[C@H](C)CCC[C@H](C)CCCC(C)C)C(C)(C)CCC1 [Conjugate 9, Phytyl Retinyl Succinate]	167.4 nm	165.2 nm	151.8 nm	131.3 nm	0.0000	4.1604 mU and 4.0495 mU	4.1050 mU	3.4609 mU and 3.3380 mU	3.3995 mU	0.1719	2.9536 mU and 2.9385 mU	2.9461 mU	0.2823	–
CC1=C(/C=C/C(C)=C/C=C/C(C)=C/CO)C(C)(C)CCC1 [Retinol, retinol]	–	–	–	–	0.0000	0.0502 mU and 0.0694 mU	0.0598 mU	0.0354 mU and 0.0360 mU	0.0357 mU	0.4030	0.0218 mU and 0.0273 mU	0.0246 mU	0.5895	twice as quickly
Phytyl Diclofenate [Conjugate 4]	270.0 nm	369.7 nm	502.4 nm	436.8 nm	–	–	–	–	–	–	–	–	–	–
Phytyl Ibuprofenate [Conjugate 3]	132.9 nm	154.5 nm	156.6 nm	164.1 nm	–	–	–	–	–	–	–	–	–	–

From US20210361771A1, “TERPENE COUPLING CONJUGATE” (LABORATOIRES ERIGER, priority 2020, published 2021)
